Experimental data: US12319692B2, “Anti-influenza virus pyrimidine derivatives” (GUANGDONG RAYNOVENT BIOTECH CO., LTD., priority 2016, dated 2025)

Assays:
[1] = system: Influenza virus A/Weiss/43 (H1N1); experiment: Influenza virus cytopathic effect (CPE) experiment in MDCK cells; type: cell-based; details: 120 h, 5 days, CCK8 cell viability
[2] = system: influenza A virus H1N1 (H1N1 A/WSN/33); experiment: In vivo pharmacodynamics in mouse infection model of influenza A virus H1N1; details: female BALB/c mice, H1N1 A/WSN/33, 10 mg/kg oral twice a day, day 1 to day 7, first dose 36 hours after infection

Row | Compound | EC50 [1] | Survival Rate (percentages) [2] | Weight Losing Rate (day 9) [2]
1 | CSc1nc(-c2c[nH]c3ncc(F)cc23)nc(N[C@H]2C3CCC(CC3)[C@@H]2C(=O)O)c1F [WX-139] | 0.02 nM | – | –
2 | CCSc1nc(-c2c[nH]c3ncc(F)cc23)nc(N[C@H]2C3CCC(CC3)[C@@H]2C(=O)O)c1F [WX-156] | 0.01 nM | – | –
3 | CSc1nc(-c2c[nH]c3c(F)cc(F)cc23)nc(N[C@H]2C3CCC(CC3)[C@@H]2C(=O)O)c1F [WX-160] | 0.5 nM | – | –
4 | O=C(O)[C@H]1C2CCC(CC2)[C@@H]1Nc1nc(-c2c[nH]c3ncc(F)cc23)nc(-n2ccnc2)c1F [WX-186] | 0.1 nM | – | –
5 | O=C(O)[C@H]1C2CCC(CC2)[C@@H]1Nc1nc(-c2n[nH]c3ncc(F)cc23)nc(C2CC2)c1F [WX-216] | 0.013 nM | 100% | 4.8%
6 | O=C(O)[C@H]1C2CCC(CC2)[C@@H]1Nc1nc(-c2c[nH]c3ncc(F)cc23)nc(-c2ccncc2)c1F [WX-230] | 0.1 nM | – | –
7 | Cn1cc(-c2nc(-c3c[nH]c4ncc(F)cc34)nc(N[C@H]3C4CCC(CC4)[C@@H]3C(=O)O)c2F)cn1 [WX-231] | 0.2 nM | 100% | 12.9%
8 | O=C(O)[C@H]1C2CCC(CC2)[C@@H]1Nc1nc(-c2c[nH]c3ncc(F)cc23)nc(SCC(F)(F)F)c1F [WX-234] | 0.1 nM | – | –
9 | O=C(O)[C@H]1C2CCC(CC2)[C@@H]1Nc1nc(-c2c[nH]c3ncc(F)cc23)nc(-c2cccs2)c1F [WX-236] | 0.01 nM | – | –
10 | O=C(O)[C@H]1C2CCC(CC2)[C@@H]1Nc1nc(-c2c[nH]c3ncc(F)cc23)nc(-c2ccsc2)c1F [WX-240] | 0.03 nM | – | –
11 | CC(C)(C)Sc1nc(-c2c[nH]c3ncc(F)cc23)nc(N[C@H]2C3CCC(CC3)[C@@H]2C(=O)O)c1F [WX-241] | 0.01 nM | – | –
12 | Cc1noc(C)c1-c1nc(-c2c[nH]c3ncc(F)cc23)nc(N[C@H]2C3CCC(CC3)[C@@H]2C(=O)O)c1F [WX-245] | 4 nM | – | –
13 | Cc1ccc(-c2nc(-c3c[nH]c4ncc(F)cc34)nc(N[C@H]3C4CCC(CC4)[C@@H]3C(=O)O)c2F)s1 [WX-247] | 56.6 nM | – | –
14 | CC(C)C#Cc1nc(-c2c[nH]c3ncc(F)cc23)nc(N[C@H]2C3CCC(CC3)[C@@H]2C(=O)O)c1F [WX-249] | 0.009 nM | – | –
15 | O=C(O)[C@H]1C2CCC(CC2)[C@@H]1Nc1nc(-c2c[nH]c3ncc(F)cc23)nc(-c2cc[nH]n2)c1F [WX-260] | 1.1 nM | – | –
16 | CC(C)Sc1nc(-c2c[nH]c3ncc(F)cc23)nc(N[C@H]2C3CCC(CC3)[C@@H]2C(=O)O)c1F [WX-261] | 0.018 nM | – | –
17 | O=C(O)[C@H]1C2CCC(CC2)[C@@H]1Nc1nc(-c2c[nH]c3ncc(F)cc23)nc(-c2cnn(CCO)c2)c1F [WX-263] | 1.5 nM | – | –
18 | Cn1cc(-c2nc(-c3n[nH]c4ncc(F)cc34)nc(N[C@H]3C4CCC(CC4)[C@@H]3C(=O)O)c2F)cn1 [WX-264] | 0.1 nM | – | –
19 | O=C(O)[C@H]1C2CCC(CC2)[C@@H]1Nc1nc(-c2n[nH]c3ncc(F)cc23)nc(-c2cn[nH]c2)c1F [WX-265] | 2.8 nM | – | –
20 | O=C(O)[C@H]1C2CCC(CC2)[C@@H]1Nc1nc(-c2n[nH]c3ncc(F)cc23)nc(-c2ccsc2)c1F [WX-269] | 0.019 nM | – | –
21 | O=C(O)[C@H]1C2CCC(CC2)[C@@H]1Nc1nc(-c2n[nH]c3ncc(F)cc23)nc(-c2cccs2)c1F [WX-271] | 0.057 nM | – | –
22 | CC(C)(C)Sc1nc(-c2n[nH]c3ncc(F)cc23)nc(N[C@H]2C3CCC(CC3)[C@@H]2C(=O)O)c1F [WX-274] | 0.1 nM | – | –
23 | CC(C)(C)C#Cc1nc(-c2c[nH]c3ncc(F)cc23)nc(N[C@H]2C3CCC(CC3)[C@@H]2C(=O)O)c1F [WX-275] | 0.009 nM | – | –
24 | CSc1nc(-c2nc(-c3c[nH]c4ncc(F)cc34)nc(N[C@H]3C4CCC(CC4)[C@@H]3C(=O)O)c2F)c[nH]1 [WX-276] | 3.6 nM | – | –
25 | O=C(O)c1ccc(-c2nc(-c3c[nH]c4ncc(F)cc34)nc(N[C@H]3C4CCC(CC4)[C@@H]3C(=O)O)c2F)s1 [WX-278] | 2.7 nM | – | –

Row | Compound | EC50 [1] | Survival Rate (percentages) [2] | Weight Losing Rate (day 9) [2]
26 | CN(C)Cc1ccc(-c2nc(-c3c[nH]c4ncc(F)cc34)nc(N[C@H]3C4CCC(CC4)[C@@H]3C(=O)O)c2F)s1 [WX-279] | 0.025 nM | 100% | 28.7%
27 | Cn1cc(-c2nc(-c3n[nH]c4ncc(C(F)(F)F)cc34)nc(N[C@H]3C4CCC(CC4)[C@@H]3C(=O)O)c2F)cn1 [WX-280] | 0.055 nM | – | –
28 | O=C(O)[C@H]1C2CCC(CC2)[C@@H]1Nc1nc(-c2c[nH]c3ncc(F)cc23)nc(-c2cnn(C3CC3)c2)c1F [WX-281] | 0.026 nM | – | –
29 | COCCn1cc(-c2nc(-c3c[nH]c4ncc(F)cc34)nc(N[C@H]3C4CCC(CC4)[C@@H]3C(=O)O)c2F)cn1 [WX-283] | 0.4 nM | – | –
30 | CC(C)(C(=O)O)n1cc(-c2nc(-c3c[nH]c4ncc(F)cc34)nc(N[C@H]3C4CCC(CC4)[C@@H]3C(=O)O)c2F)cn1 [WX-284] | 10 nM | – | –
31 | Cc1csc(-c2nc(-c3c[nH]c4ncc(F)cc34)nc(N[C@H]3C4CCC(CC4)[C@@H]3C(=O)O)c2F)c1 [WX-285] | 32 nM | – | –
32 | CC(C)(C(N)=O)n1cc(-c2nc(-c3c[nH]c4ncc(F)cc34)nc(N[C@H]3C4CCC(CC4)[C@@H]3C(=O)O)c2F)cn1 [WX-286] | 3.7 nM | – | –
33 | CN1CCN(C(=O)c2ccc(-c3nc(-c4c[nH]c5ncc(F)cc45)nc(N[C@H]4C5CCC(CC5)[C@@H]4C(=O)O)c3F)s2)CC1 [WX-288] | 2.3 nM | – | –
34 | CN1CCN(Cc2ccc(-c3nc(-c4c[nH]c5ncc(F)cc45)nc(N[C@H]4C5CCC(CC5)[C@@H]4C(=O)O)c3F)s2)CC1 [WX-289] | 0.1 nM | – | –
35 | O=C(O)[C@H]1C2CCC(CC2)[C@@H]1Nc1nc(-c2c[nH]c3ncc(F)cc23)nc(-c2ccc(CN3CCOCC3)s2)c1F [WX-290] | 0.041 nM | 40% | 27.6%
36 | CN1CC(n2cc(-c3nc(-c4c[nH]c5ncc(F)cc45)nc(N[C@H]4C5CCC(CC5)[C@@H]4C(=O)O)c3F)cn2)C1 [WX-293] | 8 nM | – | –
37 | CCn1cc(-c2nc(-c3c[nH]c4ncc(F)cc34)nc(N[C@H]3C4CCC(CC4)[C@@H]3C(=O)O)c2F)cn1 [WX-294] | 0.1 nM | – | –
38 | CN(C)Cc1cc(-c2nc(-c3c[nH]c4ncc(F)cc34)nc(N[C@H]3C4CCC(CC4)[C@@H]3C(=O)O)c2F)cs1 [WX-295] | 0.013 nM | – | –
39 | N#CCn1cc(-c2nc(-c3c[nH]c4ncc(F)cc34)nc(N[C@H]3C4CCC(CC4)[C@@H]3C(=O)O)c2F)cn1 [WX-296] | 1 nM | – | –
40 | O=C(O)[C@H]1C2CCC(CC2)[C@@H]1Nc1nc(-c2n[nH]c3ncc(F)cc23)nc(C2CC2(F)F)c1F (stereo partly drawn) [WX-297] | 0.024 nM | 100% | 27.3%
41 | O=C(O)[C@H]1C2CCC(CC2)[C@@H]1Nc1nc(-c2c[nH]c3ncc(F)cc23)nc(-c2ccc(Cl)s2)c1F [WX-298] | 6.7 nM | – | –
42 | CC1(c2nc(-c3n[nH]c4ncc(F)cc34)nc(N[C@H]3C4CCC(CC4)[C@@H]3C(=O)O)c2F)CC1 [WX-351] | 0.2 nM | – | 35.3%
43 | O=C(O)[C@H]1C2CCC(CC2)[C@@H]1Nc1nc(-c2c[nH]c3ncc(F)cc23)nc(-c2ccn(C(F)F)n2)c1F [WX-352] | 0.046 nM | – | –
44 | O=C(O)[C@H]1C2CCC(CC2)[C@@H]1Nc1nc(-c2n[nH]c3ncc(F)cc23)nc(C2CC2F)c1F (stereo partly drawn) [WX-353] | 0.039 nM | – | –
45 | NC1(c2nc(-c3n[nH]c4ncc(F)cc34)nc(N[C@H]3C4CCC(CC4)[C@@H]3C(=O)O)c2F)CC1 [WX-354] | 4.4 nM | – | –
46 | O=C(O)[C@H]1C2CCC(CC2)[C@@H]1Nc1nc(-c2n[nH]c3ncc(F)cc23)nc(C2(F)CC2)c1F [WX-355] | 0.04 nM | – | –
47 | N#CC1(c2nc(-c3n[nH]c4ncc(F)cc34)nc(N[C@H]3C4CCC(CC4)[C@@H]3C(=O)O)c2F)CC1 [WX-358] | 0.6 nM | – | –
48 | N#C[C@H]1C[C@@H]1c1nc(-c2n[nH]c3ncc(F)cc23)nc(N[C@H]2C3CCC(CC3)[C@@H]2C(=O)O)c1F [WX-359] | 0.09 nM | – | –
49 | N#C[C@@H]1C[C@H]1c1nc(-c2n[nH]c3ncc(F)cc23)nc(N[C@H]2C3CCC(CC3)[C@@H]2C(=O)O)c1F [WX-360] | 0.2 nM | – | –
